Assay results taken from ChEMBL document CHEMBL1137959, “Two new bacterial DNA primase inhibitors from the plant Polygonum cuspidatum” (Bioorg Med Chem Lett, 2004).

Assays:
Nucleic Acid [1] = test: Inhibitory activity against bacterial DNA primase; assay type: nucleic-acid assay, Escherichia coli
Nucleic Acid [2] = test: Inhibitory activity against bacterial DNA primase in fluorescent intercalator dye displacement assay (FID); assay type: nucleic-acid assay, Escherichia coli

| IC50 (Nucleic Acid [1]) | IC50 (Nucleic Acid [2]) | SMILES |
| --- | --- | --- |
| 4 µM | 4 µM | O=C(O[C@@H]1[C@@H](Oc2cc(O)cc(/C=C/c3ccc(O)cc3)c2)O[C@@H](CO)[C@@H](O)[C@@H]1O)c1cc(O)c(O)c(O)c1 |
| 5 µM | – | O=C(OC[C@@H]1O[C@H](Oc2cc(O)cc(/C=C/c3ccc(O)cc3)c2)[C@@H](O)[C@@H](O)[C@@H]1O)c1cc(O)c(O)c(O)c1 |
